Data: patent publication US20200237852A1, “Small Molecule Enhancers of Paneth Cell Function and Differentiation” (Massachusetts Institute of Technology, priority 2019, published 2020)

Key:
Assay type in all cases: cell-based, C57BL/6 mice
[1] = system: mature PC (CD24-mid & LYZ+) and secretory precursor (CD24-hi) populations; experiment: Flow cytometry profiling of organoids in 2.5-D (CD24, LYZ); conditions: 6-day ENR+CD+treatment, fraction of viable cells, n=3 bio. donors
Text: Cells processed for flow cytometry were first gated to exclude potential debris or doublets (via widely accepted forward and side scatter gating), and subsequently gated for viability (via Zombie-violet viability dye exclusion), all viable cells were considered for CD24 & LYZ expression analysis. […] For flow cytometry profiling of the 6 validate small molecules, ISC-enriched ‘small clusters’ in 3D Matrigel culture were passaged to a “2.5D” 96-well plate culture system for six days of ENR, or ENR+CD+drug culture in the same manner as described previously with the exception of plating in 96-well plates prepared with a polymerized 70% Matrigel coating in each well. Plates were centrifuged at 50 g for 1 min at 4° C. to allow for cells to partially embed in Matrigel coating. Drugs were pinned into their respective wells using the Tecan from a drug stamp plate. Media was changed at day three, including pinning of the drug treatments. At day six, cells were washed 3× with basal media, then harvested from Matrigel by mechanical disruption in TrypLE Express to remove Matrigel and dissociate organoids to single cells. After vigorous pipetting and incubation at 37° C. for 20 mins, dissociated organoids were strained through a 96-well filter plate with a 30-40 μm filter (Pall) into an ultra low-bind 96-well plate (Costar) by centrifuging at 300×g for 3 mins at 4° C. The cell filtrate was centrifuged again at 300×g for 3 mins at 4° C. to pellet the cells. Cell pellets were resuspended in FACS buffer (2% FBS in PBS0), then transferred to an ultra low-bind 96-well plate for flow prep. Cells were stained with Zombie-violet viability dye (BioLegend) at 100× for viability staining and/or antibody staining solution. FITC-conjugated antibody for lysozyme and APC-conjugated antibody for CD24 were used at 100× dilution (BioLegend). Flow cytometry was performed using a LSR Fortessa (BD; Koch Institute Flow Cytometry Core at MIT). Flow cytometry data was analyzed using FlowJo X v10.1 software.

[2] = system: conventional organoid (ENR); experiment: 384-well screen in conventional organoid (ENR), secreted LYZ (LYZ.NS, LYZ.S); conditions: 6-day ENR differentiation compared with ENR+CD
[3] = system: ENR+CD organoids; experiment: Flow cytometry analysis, 3D culture, XPO1 inhibitors; conditions: 6-day ENR+CD organoids
Procedure: ISC-enriched organoids cultured in 3D Matrigel with ENRCV media were passaged to 24-well plate in 3D Matrigel with ENRCV. At day zero, media were replaced to ENRCD with or without indicated compounds, and media were replaced every other day. At day six, cells were washed with basal media, and then harvested from Matrigel by mechanical disruption in TrypLE Express (ThermoFisher, 12605010) to remove Matrigel and dissociate organoids to single cells. After vigorous pipetting and incubation at 37° C. for 20 min, dissociated organoids were strained through a 35 μm cell strainer into a tube (Falcon, 352235). The cell filtrate was centrifuged again at 300×g for 3 min at 4° C. to pellet the cells. Cell pellets were resuspended in FACS buffer (2% FBS in PBS), and then transferred to an ultra low-bind 96-well plate (Corning, 7007). Cells were stained with Zombie-violet viability dye (BioLegend, 423107) at 100× for viability staining and/or antibody staining solution. FITC-conjugated antibody for lysozyme (Dako, […]) and APC-conjugated antibody for CD24 (BioLegend, 138505) were used at 100× dilution. Flow cytometry was performed using an LSR Fortessa (BD; Koch Institute Flow Cytometry Core at MIT). The data were analyzed using FlowJo v10 software.

[4] = system: organoids differentiated under ENR+CV, ENR+CD, or ENR; experiment: Western blotting for LYZ in organoids; conditions: six days in ENR+CV
Text: ISC-enriched organoids cultured in 3D Matrigel with ENRCV media were passaged to 24-well plate in 3D Matrigel with ENRCV. At day zero, media were replaced to ENR or ENRCD with or without indicated compounds, and media were replaced every other day. At day six, cells were harvested from Matrigel by mechanical disruption and suspended in basal media. Cell pellets were lysed with Pierce® IP lysis buffer (ThermoFisher, 87787) containing Halt™ Protease Inhibitor Cocktail, EDTA-Free (ThermoFisher, 87785) after 3-minute centrifuge at 300×g at 4° C. Cell extracts were resolved by NuPAGE® SDS-PAGE Gel system (ThermoFisher) and electroblotted onto polyvinylidene difluoride membranes using Criterion™ Blotter (Biorad). The membranes were blocked with 2% Blotting-Grade Blocker (Biorad, 1706404) in TBS-T (50 mM Tris-HCl, 150 mM NaCl, and 0.1% Tween 20, pH 8.0) and then probed with appropriate antibodies. Detection was performed using ECL Select™ Western Blotting Detection Reagent (Amersham, 45-000-999) and ImageQuant LAS4000 (GE Healthcare).

[5] = system: ENR+CD and ENR organoid populations; experiment: Population RNA-seq of organoids; conditions: 3 days of treatment, all media conditions controlled, FDR<0.01
Text: To further assess the potential interaction of Wnt agonist CHIR99021 (C) and Notch inhibitor DAPT (D) with XPO1 inhibitors, we carried out an experiment where we assessed bulk organoid population transcriptomes (with RNA-seq) from multiple variations on growth media, XPO1 inhibitor, and duration of treatment (FIG. 12A). To characterize the resulting cell phenotypes, we used aggregate scores of geneset enrichment (based on module scoring as implemented in^7) from the in vivo Paneth and related enteroendocrine cell populations (genesets taken from^6). We see that again for both ENR+CD treated (FIG. 12B) and ENR treated (FIG. 12C) organoid populations, XPO1 inhibition drives enrichment in Paneth cell defining genes, principally at 3 days of treatment. […]
Population RNA-seq was performed using a derivative of the Smart-Seq2 protocol for single cells^1,2. […] Libraries were pooled post-Nextera and cleaned using Agencourt AMPure SPRI beads with successive 0.7× and 0.8× ratio SPRIs and sequenced with an Illumina 75 Cycle NextSeq500/550v2 kit (Illumina FC-404-2005) with loading density at 2.2 pM, with paired end 35 cycle read structure. Samples were sequenced at an average read depth of 8.44 million reads per sample and a total of 96 samples. […]

O=C(/C=C\n1cnc(-c2cc(C(F)(F)F)cc(C(F)(F)F)c2)n1)NNc1cnccn1 [KPT-330]
mature PC (CD24-mid & LYZ+) population relative to control [1]: statistically significant increase (adj. p<0.01)
secretory precursor (CD24-hi) population relative to control [1]: trend to a smaller population
mean fold change in LYZ.NS/ATP and LYZ.S/ATP (LYZ secretion per cell) in ENR [2]: reasonable increases in LYZ secretion per cell in ENR
Paneth cell representation by flow cytometry [3]: statistically significant increases in Paneth cell representation
LYZ abundance on a per-mass protein normalized basis (western blot) [4]: appreciably increase LYZ abundance
identity of the majority of significantly up-regulated genes relative to no treatment (DESeq2) [5]: known Paneth cell lineage-defining genes
